Test results as given in patent publication US7728146B2, “Enzyme inhibitors” (Probiodrug AG, priority 2006, dated 2010).
Where two headings read alike, the source gives them in different places.

Key:
[1] = Bioavailability studies (pharmacokinetics after oral and intraarterial administration); assay type: in vivo, rat; conditions: for AUC / AUC(0-inf) / AUC(0-t) / Cmax / Tmax / half-life / AUC/Dose: male Wistar rats; for AUC: cross-over design; for AUC(0-inf) / AUC(0-t) / Cmax / Tmax / half-life / AUC/Dose: hydrochloride salt, Mean ± SD; for bioavailability: calculated from Mean AUC p.o. / Mean AUC i.a., read-out: F (bioavailability)
Protocol: Male Wistar rats (N=25; Crl:WI) with a body weight ranging between 300 and 350 g were purchased from Harlan Winkelmann GmbH (Borchen, Germany).
All studycompounds were used in the form of the hydrochloride salt.
One week after adaptation to the housing conditions, catheters were implanted into the carotid artery of the rats under general anaesthesia (i.p. injection of 0.25 mL/kg b.w. Rompun® [2%], BayerVital, Germany and 0.5 mL/kg b.w. Ketamin 10, Atarost GmbH & Co., Twistringen, Germany). The animals were allowed to recover for one week. The catheters were flushed with heparin-saline (100 IU/mL) three times per week.
After overnight fast, the inhibitors were administered the oral route via a feeding tube (15 g, 75 mm; Fine Science Tools, Heidelberg, Germany) and the intraarterial route via the arterial catheter. In case of intraarterial administration, the catheter was immediately flushed with 30 μL saline.
The animals were treated by a single oral dose of 3 mg/kg (5 mL/kg b.w.; treatment A) followed by a wash-out period of at least 3 days before intraarterial administration of 3 mg/kg (2 mL/kg b.w.; treatment B). The compounds were dissolved in saline to a final concentration adequate for an application of 3 mg/kg b.w.
Heparinized blood samples of 170 μL were collected in ice cooled sample tubes at −5, 0 (before medication) and at 5, 15, 30, 45, 60, 120, 240, 360 and 480 min. Blood samples in sample tubes were put shortly on ice and centrifuged thereafter (12,000 rpm for 2 min).
Plasma levels of the DP IV inhibitors were determined by measurement of plasma DP IV activity under standardized conditions using Gly-Pro-pNA as substrate. Plasma levels were calculated from the degree of inhibition using the known inhibition constants and the equation for competitive inhibition.
For determination of plasma DP IV activity, 50 μL sample in an appropriate dilution were incubated with 100 μL Hepes buffer (0.102 M, pH 7.6, I=0.319 M by KCl) and 50 μL water in a 96 well plate. Reaction was started by addition of 50 μL of a 2 mM Gly-Pro-pNA solution. Release of pNA was monitored for 20 min at 30° C. and 405 nm using a GeniousPro plate reader (Tecan). DP IV activity (deltaAbsorbtion/min) was calculated by linear regression of the time response curve. From this activity the concentration of the inhibitor was calculated using the following equation derived from the inhibitor equation for competitive inhibition.
Pharmacokinetic analyses (parameters of the individual PK profiles) and descriptive statistics were carried out using WinNonlin (Version 4.0.1, Professional). Based on plasma concentration data of inhibitors, the following model-independent pharmacokinetic variables were determined:
AUC(0-inf), AUC(0-t), Cmax, tmax, terminal half-life (t1/2) and bioavailability (F).
F (in %) was calculated from the ratio of observed AUC upon oral route of administration to the AUC upon intraarterial administration.

[2] = Blood-brain distribution / LogBB; assay type: in vivo; conditions: male Wistar rats, bolus plus 60 min continuous i.v. infusion; for Kp at 60 min / Kp at 1 h: Wistar (Crl:WI), rat, brain and plasma, iv; for Kp at 1 h: read-out: Brain/Plasma ratio; for LogBB Mean: mean of the animals
Protocol: Male Wistar rats (N=20, 5 per Group; Crl:WI) with a body weight ranging between 300 and 350 g were purchased from Charles River Laboratories (Sulzfeld, Germany).
One week after adaptation to the housing conditions, catheters were implanted into the carotid artery and jugular vein of the rats under general anaesthesia (i.p. injection of 0.25 ml/kg b.w. Rompun® [2%], BayerVital, Germany and 0.5 ml/kg b.w. Ketamin 10, Atarost GmbH & Co., Twistringen, Germany). The animals were allowed to recover for one week. The catheters were flushed with heparin-saline (100 IU/ml) three times per week. In case of dysfunction of the catheter, a new animal were recruited to implant catheters into the carotid artery and jugular vein of this new rat under general anaesthesia. No anaesthetics were administered during infusion for compound transfer.
The bolus dose of compounds were dissolved in 10 μl DMSO and than diluted to 1 ml with saline (0.154 mol/l) and were injected via the venous catheter (n=5 rats). Thereafter, a continuous i.v. infusion of the compound solved in 10 μl DMSO and diluted to 5 ml with saline (infusion rate 0.083 ml/min; Perfusor^R fm, B. Braun, Melsungen AG, Germany) were commenced for 60 min. 150 μl arterial blood samples were taken at 0, 20, 40, 50 and 60 min and stored on ice until centrifugation (12000 rpm for 2 min). Separated plasma were frozen in liquid nitrogen for further analysis.
After 60 min primed-continuous infusion the N=5 rats were heparinized with 50 IU per 100 g b.w. heparin 5 min before the end of protease inhibitor infusion. The rats were quickly anaesthetized with i.a. ketamin® injection and bled to death from the abdominal vessels. The aorta supplying the upper part of the body were separated and canulated. The upper part of the body (including the brain) were perfused with 20 ml ice cold saline to flush the vessels free within the brain. The brains were taken out of the skull, rinsed briefly in ice cold saline and placed on filter paper.
Preparation: The brains were divided into their hemispheres, which were weighed and frozen in liquid nitrogen for further analysis.
In plasma samples and brain tissues concentrations of compounds were measured using the aforementioned LC-MS methods.

DP IV = DP IV (Homo sapiens, UniProt P27487); experiment: Ki and inhibition type, DP IV; assay type: biochemical; conditions: compounds obtained by preparative synthesis
DP IV, sequence (P27487 whole entry): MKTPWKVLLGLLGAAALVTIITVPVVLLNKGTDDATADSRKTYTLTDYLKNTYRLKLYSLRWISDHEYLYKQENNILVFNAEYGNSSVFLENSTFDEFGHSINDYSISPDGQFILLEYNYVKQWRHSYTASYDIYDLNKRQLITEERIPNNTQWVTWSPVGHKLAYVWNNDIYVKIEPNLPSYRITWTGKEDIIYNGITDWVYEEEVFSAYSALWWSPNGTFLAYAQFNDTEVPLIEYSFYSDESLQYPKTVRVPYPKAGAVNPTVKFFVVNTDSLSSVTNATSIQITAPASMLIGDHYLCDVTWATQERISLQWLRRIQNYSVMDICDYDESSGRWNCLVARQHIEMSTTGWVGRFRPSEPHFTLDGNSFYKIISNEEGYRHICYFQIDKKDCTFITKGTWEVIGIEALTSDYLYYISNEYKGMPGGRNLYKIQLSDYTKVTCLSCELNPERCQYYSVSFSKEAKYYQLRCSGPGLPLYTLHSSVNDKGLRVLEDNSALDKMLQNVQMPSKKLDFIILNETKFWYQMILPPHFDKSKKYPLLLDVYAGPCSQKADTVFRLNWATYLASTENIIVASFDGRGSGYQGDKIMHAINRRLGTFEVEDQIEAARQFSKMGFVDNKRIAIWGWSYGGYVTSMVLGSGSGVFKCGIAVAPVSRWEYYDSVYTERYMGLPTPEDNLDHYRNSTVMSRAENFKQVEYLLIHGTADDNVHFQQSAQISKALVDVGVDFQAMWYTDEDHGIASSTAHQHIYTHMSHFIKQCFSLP
Method in brief: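 Ki by non-linear regression of 7 inhibitor dilutions (range from IC50) against 4 substrate dilutions, in triplicate, using purified human recombinant enzyme under IC50 assay conditions. Inhibition type assigned from the best-fitting equation (competitive, partial competitive, non-competitive); […].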

DPII = DPII (Homo sapiens, UniProt Q9UHL4); experiment: DPII assay; assay type: biochemical; conditions: for Selectivity DPII(IC50)/DPIV(Ki): ratio IC50 DPII / Ki DP IV
Protocol: Determination of IC50 values for DPII and DP9 are done similarly as described for DP IV.
For DPII instead of the HEPES buffer a 0.2 M sodium acetate buffer pH 5.5 is used. As substrate Gly-Pro-AMC is used in a final concentration of 1 mM.

[3] = Wistar (Crl:WI), rat, plasma, po, 3 mg/kg p.o., read-out: Mean AUC p.o.
[4] = Wistar (Crl:WI), rat, plasma, 3 mg/kg i.a., read-out: Mean AUC i.a.
[5] = Wistar (Crl:WI), rat, plasma, intraarterial 3 mg/kg, N = 4-6
[6] = Wistar (Crl:WI), rat, plasma, oral 3 mg/kg, N = 5
[7] = male, Wistar (Crl:WI), rat, plasma, 3 mg/kg, intraarterial 3 mg/kg, N = 4-6, read-out: Half-life (converted)
[8] = male, Wistar (Crl:WI), rat, plasma, po, 3 mg/kg, oral 3 mg/kg, N = 5, read-out: Half-life (converted)
[9] = male, Wistar (Crl:WI), rat, plasma, po, 3 mg/kg
[10] = sodium acetate buffer pH 5.5, Gly-Pro-AMC 1 mM

SMILES: NCc1c(-c2ccc(Cl)cc2Cl)ncn1Cc1ccsc1 [Example 130b, (4-(2,4-dichlorophenyl)-1-((thiophen-3-yl)methyl)-1H-imidazol-5-yl)methanamine]
- AUC [1, 3]: 1270 ng·h/mL
- AUC [1, 4]: 1680 ng·h/mL
- AUC(0-inf) [1, 5]: 2470 ± 1440 ng·h/mL
- AUC(0-t) [1, 5]: 1680 ± 516 ng·h/mL
- Cmax [1, 5]: 1160 ± 470 ng/mL
- AUC(0-inf) [1, 6]: 2330 ± 1180 ng·h/mL
- AUC(0-t) [1, 6]: 1270 ± 618 ng·h/mL
- Cmax [1, 6]: 300 ng/mL
- Tmax [1, 6]: 0.55 ± 0.326 h
- half-life ([1]; intraarterial 3 mg/kg, N = 4-6): 4.00 ± 2.308 h
- AUC/Dose ([1]; oral 3 mg/kg, N = 5): 0.78 ± 0.394 kg·µg·h/mL/mg
- half-life [1, 7]: 5.5 h
- half-life [1, 8]: 5.49 ± 1.52 h
- bioavailability [1, 9]: 76%
- LogBB ([2]; Animal No. 1): −0.65
- LogBB ([2]; Animal No. 2): −0.63
- LogBB ([2]; Animal No. 3): −1.03
- LogBB ([2]; Animal No. 4): −0.12
- LogBB ([2]; Animal No. 5): −0.76
- Kp at 60 min [2]: 0.23
- Kp at 1 h [2]: 0.23
- LogBB Mean [2]: −0.6380
- Ki (DP IV): 7.69 nM
- Ki (DPII): 3840 nM
- Selectivity DPII(IC50)/DPIV(Ki) (DPII): 186
- IC50 (DPII; [10]): 1430 nM

SMILES: NCc1c(-c2ccc(Cl)cc2Cl)ncn1Cc1cccnc1 [Example 121b, (4-(2,4-dichlorophenyl)-1-((pyridin-3-yl)methyl)-1H-imidazol-5-yl)methanamine]
- AUC [1, 3]: 230 ng·h/mL
- AUC [1, 4]: 440 ng·h/mL
- AUC(0-inf) [1, 5]: 630 ± 350 ng·h/mL
- AUC(0-t) [1, 5]: 440 ± 215 ng·h/mL
- Cmax [1, 5]: 400 ± 120 ng/mL
- AUC(0-inf) [1, 6]: 350 ± 207 ng·h/mL
- AUC(0-t) [1, 6]: 230 ± 206 ng·h/mL
- Cmax [1, 6]: 110 ± 51 ng/mL
- Tmax [1, 6]: 0.45 ± 0.274 h
- AUC/Dose ([1]; intraarterial 3 mg/kg, N = 4-6): 0.21 ± 0.115 kg·µg·h/mL/mg
- AUC/Dose ([1]; oral 3 mg/kg, N = 5): 0.12 ± 0.069 kg·µg·h/mL/mg
- half-life [1, 7]: 1.98 ± 0.994 h
- half-life [1, 8]: 3.26 ± 3.87 h
- bioavailability [1, 9]: 53%
- LogBB ([2]; Animal No. 1): −0.57
- LogBB ([2]; Animal No. 2): −0.50
- LogBB ([2]; Animal No. 3): −0.70
- LogBB ([2]; Animal No. 4): −0.91
- Kp at 60 min [2]: 0.214
- Kp at 1 h [2]: 0.214
- LogBB Mean [2]: −0.6700
- Ki (DP IV): 2.96 nM
- Selectivity DPII(IC50)/DPIV(Ki) (DPII): 41,216
- IC50 (DPII; values >1e−4 are extrapolated values): 122000 nM

SMILES: NCc1c(-c2ccc(Cl)cc2Cl)ncn1Cc1ccccn1 [Example 39b]
- AUC [1, 3]: 140 ng·h/mL
- AUC [1, 4]: 330 ng·h/mL
- AUC(0-inf) [1, 5]: 410 ± 191 ng·h/mL
- AUC(0-t) [1, 5]: 330 ± 148 ng·h/mL
- Cmax [1, 5]: 280 ± 51 ng/mL
- AUC(0-inf) [1, 6]: 290 ± 141 ng·h/mL
- AUC(0-t) [1, 6]: 140 ± 75 ng·h/mL
- Cmax [1, 6]: 80 ng/mL
- Tmax [1, 6]: 0.4 ± 0.224 h
- half-life ([1]; intraarterial 3 mg/kg, N = 4-6): 1.57 ± 1.138 h
- AUC/Dose ([1]; oral 3 mg/kg, N = 5): 0.10 ± 0.047 kg·µg·h/mL/mg
- half-life [1, 7]: 1.6 h
- half-life [1, 8]: 3.18 ± 2.13 h
- bioavailability [1, 9]: 43%
- LogBB ([2]; Animal No. 1): −0.56
- LogBB ([2]; Animal No. 2): −0.43
- LogBB ([2]; Animal No. 3): −0.53
- LogBB ([2]; Animal No. 4): −0.38
- LogBB ([2]; Animal No. 5): −0.39
- Kp at 60 min [2]: 0.275
- Kp at 1 h [2]: 0.275
- LogBB Mean [2]: −0.4580
- Ki (DP IV): 5.68 nM
- Selectivity DPII(IC50)/DPIV(Ki) (DPII): >176,056
- IC50 (DPII; [10]): > 100000 nM

SMILES: NCc1c(-c2ccc(Cl)cc2Cl)ncn1Cc1ccccc1 [Example 24b, (1-benzyl-4-(2,4-dichlorophenyl)-1H-imidazol-5-yl)methanamine]
- AUC [1, 3]: 390 ng·h/mL
- AUC [1, 4]: 510 ng·h/mL
- AUC(0-inf) [1, 5]: 640 ± 205 ng·h/mL
- AUC(0-t) [1, 5]: 510 ± 151 ng·h/mL
- Cmax [1, 5]: 440 ± 73 ng/mL
- AUC(0-inf) [1, 6]: 650 ± 314 ng·h/mL
- AUC(0-t) [1, 6]: 390 ± 149 ng·h/mL
- Cmax [1, 6]: 130 ± 36 ng/mL
- Tmax [1, 6]: 0.75 ± 0.177 h
- AUC/Dose ([1]; intraarterial 3 mg/kg, N = 4-6): 0.18 ± 0.093 kg·µg·h/mL/mg
- AUC/Dose ([1]; oral 3 mg/kg, N = 5): 0.22 ± 0.105 kg·µg·h/mL/mg
- half-life [1, 7]: 2.94 ± 1.39 h
- half-life [1, 8]: 4.83 ± 4.08 h
- bioavailability [1, 9]: 76%
- LogBB ([2]; Animal No. 1): −0.36
- LogBB ([2]; Animal No. 2): −0.33
- LogBB ([2]; Animal No. 3): −0.26
- LogBB ([2]; Animal No. 4): −0.34
- LogBB ([2]; Animal No. 5): −0.29
- Kp at 60 min [2]: 0.483
- Kp at 1 h [2]: 0.483
- LogBB Mean [2]: −0.3160
- Ki (DP IV): 4.74 nM
- Selectivity DPII(IC50)/DPIV(Ki) (DPII): 6,329
- IC50 (DPII; [10]): 30000 nM
